The compounds below were run on GUMC-403 (assay: viability at highest tested concentration (max response) relative to DMSO (% of DMSO control); higher = less cytotoxic). Details: library / dose series: MIPE library, 11-point 1:3 dilution; top concentration 23 µM; 48 h.
Outline: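 In 1536-well plates, 700 GUMC-403 papilloma cells per well, taken from a patient and grown by conditional reprogramming, were seeded in 5 μL F + Y medium and incubated overnight at 37 °C. Compounds were pinned in at 23 nL in an 11-point 1:3 series, and left for 48 h before CellTiter-Glo luminescence was read on a ViewLux against vehicle (100%) and empty (0%) wells. Reported values are viability at the highest tested concentration relative to vehicle control.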
Compound `Cn1c(CNc2ccc(C(=N)N)cc2)nc2cc(C(=O)N(CCC(=O)O)c3ccccn3)ccc21` has a viability of 134.

Same assay, conditions: library / dose series: MIPE library, 11-point 1:3 dilution; top concentration 46.1 µM; 48 h
`OC[C@H]1O[C@@H](O[C@@H]2[C@@H](CO)O[C@](O)(CO)[C@H]2O)[C@H](O)[C@@H](O)[C@H]1O` was tested, and the viability was 95.3. `COc1ccc2c(c1)c(CC(=O)O)c(C)n2C(=O)c1ccc(Cl)cc1` was tested, and the viability was 111. For `COC1=CC=C(C=C1)C/2=C/OC3=CC(=CC=C3C2=O)O`, the viability was 95.7. `Cc1nccn1CC1CCc2c(c3ccccc3n2C)C1=O` (configuration not stated) was tested, and the viability was 103. `Nc1ncnc2ccccc12` gave a viability of 127. For `CCCOc1ccc(C(=O)OCCN(CC)CC)cc1N`, the viability was 115. Work on `OC[C@H]1O[C@@H](OCCc2ccc(O)cc2)[C@H](O)[C@@H](O)[C@@H]1O` yielded a viability of 107. `COc1cc2c(cc1OC)CN(CCc1ccc(NC(=O)c3cccc4c(=O)c5cccc(OC)c5[nH]c34)cc1)CC2` was tested, and the viability was 132. Work on `N[C@@H](Cc1c[nH]c2ccc(O)cc12)C(=O)O` yielded a viability of 106. For `CCCCCCCCCCCCc1ccc([S+](=O)([O-])Nc2nncs2)cc1`, the viability was 118. `COc1cc(Oc2ccnc3cc(OC)c(OC)cc23)ccc1NC(=O)NC(C)c1nccs1` (configuration not stated) showed a viability of 110. `O=C(O)c1nn(Cc2ccc(Cl)cc2Cl)c2ccccc12` was tested, and the viability was 99.7. `CN(C)CCCC1(c2ccc(F)cc2)OCc2cc(C#N)ccc21` (configuration not stated) was tested, and the viability was 98.5. `CCCCCN(C)CCC(O)(P(=O)([O-])O)P(=O)(O)O` showed a viability of 106. Compound `Cn1cnc([N+](=O)[O-])c1Sc1ncnc2nc[nH]c12` has a viability of 105. For `Cc1c[nH]c(-c2cnc(NCCNc3ccc(C#N)cn3)nc2-c2ccc(Cl)cc2Cl)n1`, the viability was 77.1. Compound `C[C@]12CC[C@@H]3c4ccc(O)cc4CC[C@H]3[C@@H]1CC[C@@H]2O` has a viability of 86.3. `CC\12CCC(=O)\C=C1CCC3C2CCC4(C)C3CCC4(O)C#C` (configuration not stated) gave a viability of 103. `C=C1/C(=C\C=C2/CCC[C@]3(C)[C@@H]([C@H](C)/C=C/[C@H](C)C(C)C)CC[C@@H]23)C[C@@H](O)C[C@@H]1O` was tested, and the viability was 150. Compound `CN(C)CCN(Cc1ccc(Cl)cc1)c1ccccn1.Cl` has a viability of 97.6. For `O=C(O)CC/C=C\CC[C@@H]1[C@@H](N2CCCCC2)[C@@H](O)C[C@@H]1OCc1ccc(-c2ccccc2)cc1`, the viability was 112. `CC(C)C(=O)Nc1ncc(-c2cc(C(F)F)nn2-c2c(Cl)cccc2Cl)s1` was tested, and the viability was 90.8. `O=C(/C=C/C=C/c1ccc2c(c1)OCO2)N1CCCCC1` showed a viability of 114. For `Cc1onc(-c2ccccc2Cl)c1C(=O)N[C@@H]1C(=O)N2[C@@H]1SC(C)(C)[C@@H]2C(=O)[O-]`, the viability was 111. With `CCC[S+](=O)([O-])Nc1ccc(F)c(C(=O)c2c[nH]c3ncc(Cl)cc23)c1F` the viability was 79.1. Compound `CC(=O)Nc1ccc(OC[C@](C)(O)C(=O)Nc2ccc([N+](=O)[O-])c(C(F)(F)F)c2)cc1` has a viability of 88.4. Compound `CNCCCC12CCC(c3ccccc31)c1ccccc12` has a viability of 105. `Cc1ccnc(N[S+](=O)([O-])c2ccc(NC(=O)Nc3ccc([S+](=O)([O-])Nc4nccc(C)n4)cc3)cc2)n1` gave a viability of 121. With `COc1ccc(CCN2CCN(CCCc3ccccc3)CC2)cc1OC` the viability was 120. Compound `Oc1nc(-c2ccc(C(F)(F)F)cc2)nc2c1CSCC2` has a viability of 86.4. Compound `Cc1cccc(-c2[nH]c(C(C)(C)C)nc2-c2ccc3c(c2)OCO3)n1` has a viability of 118. In the case of `[NH2][Pt]1([NH2])[O]CC(=O)[O]1`, the viability is reported as 142. Work on `CC(C)(O)[C@H]1CC[C@@](C)([C@H]2[C@@H](O)C[C@@]3(C)[C@@H]4C[C@H](O[C@@H]5O[C@H](CO)[C@@H](O)[C@H](O)[C@H]5O)[C@H]5C(C)(C)[C@@H](O[C@@H]6OC[C@@H](O)[C@H](O)[C@H]6O)CC[C@@]56C[C@@]46CC[C@]23C)O1` yielded a viability of 119. For `COc1ccc([S+](=O)([O-])N(C(C)=O)c2ccccc2/C=C/c2cc[n+]([O-])cc2)cc1`, the viability was 60.2. With `COc1cc2c(Oc3ccc4[nH]c(C)cc4c3F)ncnc2cc1OCCCN1CCCC1` the viability was 64.4. `CN1CCN2c3ncccc3Cc3ccccc3C2C1` (configuration not stated) was tested, and the viability was 101. `CC(C)C[C@@H](N)[C@H](O)C(=O)N[C@H](C(=O)N[C@H](C(=O)N[C@@H](CC(=O)O)C(=O)O)C(C)C)C(C)C` showed a viability of 85.7. `CCOC(=O)O[C@]1(C(=O)OCCl)CC[C@H]2[C@@H]3CCC4=CC(=O)C=C[C@]4(C)[C@H]3[C@@H](O)C[C@@]21C` showed a viability of 149. With `Fc1ccc(C(c2ccc(F)cc2)N2CCN(C/C=C/c3ccccc3)CC2)cc1` the viability was 109. For `COc1cc2nc(N3CCN(C(=O)C4CCCO4)CC3)nc(N)c2cc1OC` (configuration not stated), the viability was 126. With `C[C@H](NCc1ccc(OCc2cccc(F)c2)cc1)C(N)=O` the viability was 80.3. `OCC(O)C(O)C(O)CO` (configuration not stated) showed a viability of 97.1. For `COC(=O)Nc1nc2cc(Sc3ccccc3)ccc2[nH]1`, the viability was 95.8. `O=C(Nc1ncc(-c2cc(C(F)F)nn2-c2c(Cl)cccc2Cl)s1)C1CC1` gave a viability of 84.9. Work on `Cl.O[C@@H](CNC[C@H](O)[C@H]1CCc2cc(F)ccc2O1)[C@@H]1CCc2cc(F)ccc2O1` yielded a viability of 95.8. `FC1=CC=C(C=C1)N2/C=C\C=C(C(=O)NC3=CC=C(OC4=C5C=C[NH]C5=NC=C4)C(=C3)F)/C2=O` was tested, and the viability was 98.8. For `COc1ccc(C(=O)N2CCCC2=O)cc1`, the viability was 119. With `Cc1cc2c(F)c(Oc3ncnn4cc(OC[C@@H](C)O)c(C)c34)ccc2[nH]1` the viability was 118. `COc1ccc(C(C)=O)c(O)c1` was tested, and the viability was 103. Work on `NC(=O)Nc1sc(-c2ccc(F)cc2)cc1C(N)=O` yielded a viability of 51.7. `NC(CO)(CO)CCc1ccc(Sc2cccc(OCc3ccccc3)c2)cc1Cl` showed a viability of 118. `CN(CC(=O)N(Cc1ccc(C2CCCCC2)cc1)c1ccc(C(=O)O)c(O)c1)[S+](=O)([O-])c1c(F)c(F)c(F)c(F)c1F` was tested, and the viability was 112. With `CC(C)(N)c1ccc(-c2nc3ccccc3nc2-c2ccccc2)cc1` the viability was 116. In the case of `CN1[C@@H]2CCC[C@H]1C[C@@H](NC(=O)c1nn(C)c3ccccc13)C2.Cl`, the viability is reported as 105. `CN(C)c1ccc(O)c2c1C[C@H]1C[C@H]3[C@H](N(C)C)C(O)=C(C(N)=O)C(=O)[C@@]3(O)C(O)=C1C2=O` was tested, and the viability was 110. With `N[C@@H]1CONC1=O` the viability was 127. `CCN(CC)CCCCNc1ncc2c(n1)N(C)C(=O)N(c1c(Cl)c(OC)cc(OC)c1Cl)C2` showed a viability of 99.8. `Nc1nccc(-c2ccc3noc(-c4ccc(Cl)cc4)c3c2)n1` gave a viability of 80.1. `CCC[C@@H]1C[C@@H](C(=O)N[C@@H]([C@H]2O[C@H](SC)[C@H](O)[C@@H](O)[C@H]2O)[C@@H](C)O)N(C)C1.Cl` gave a viability of 101. For `CCOC(=O)C(C#N)C\1C2=CC(=CC=C2O\C(=C1C(=O)OCC)N)Br` (configuration not stated), the viability was 120. In the case of `Cc1ccccc1C(OCCN(C)C)c1ccccc1` (configuration not stated), the viability is reported as 127. With `CC(C)c1cccc(C(C)C)c1O` the viability was 108. Work on `OC[C@H]1O[C@H](C[C@@H]1O)[N]2C=NC3=C2\N=C/NC[C@H]3O` yielded a viability of 83.1. `CC(=O)Oc1ccccc1C(=O)O` gave a viability of 118.

Same assay, conditions: library / dose series: MIPE library, 11-point 1:3 dilution; top concentration 92.2 µM; 48 h
Compound `CC(C)(C)c1[nH]cnc1/C=c1\[nH]c(=O)/c(=C/c2ccccc2)[nH]c1=O` has a viability of 95.3. `COc1cc(/C=C/C(=O)CC(=O)/C=C/c2ccc(O)c(OC)c2)ccc1O` gave a viability of 94.4.
